Test system: Plasmodium falciparum
Assay: GSK_TCMDC: Inhibition of Plasmodium falciparum 3D7 in whole erythrocytes, using parasite LDH activity as an index of growth.
Type: functional, organism-based
Conditions: not given

| SMILES | XC50 [nM] |
| --- | --- |
| O=C(Nc1ccc(Cn2ncc(N3CCCNCC3)c(Cl)c2=O)cc1)Nc1ccc(-c2ccccc2)cc1 | 815 |

Same assay, conditions: Plasmodium falciparum, 3D7

| SMILES | XC50 [nM] |
| --- | --- |
| Cc1c(C)c2c(c(C)c1O)CCC(C)(CCC(=O)O)O2 (stereo not drawn) | 691 |
| COc1ccc(Cl)cc1NC(=O)C(C)N1CCN(S(=O)(=O)c2ccccc2F)CC1 (stereo not drawn) | 672 |
| CC(C)NCc1cccc(-c2ccc(-c3nc4cc(C(F)(F)F)ccc4[nH]3)cc2)c1 | 193 |
| CN1CCN(c2cc(NC(=O)Nc3ccc(-c4ccncc4)c(Cl)c3)ccc2Br)CC1 | 899 |
| O=C(Cc1c[nH]cn1)Nc1ccc(-c2ccc(-c3nc4ccccc4[nH]3)s2)cc1 | 1060 |
| COc1ccc(CNc2ccc3nc(N)nc(N)c3c2)cc1 | 172 |
| c1ccc(CCNCc2cccc(-c3ccccc3CNCc3ccc4c(c3)OCO4)c2)nc1 | 968 |
| COc1ccccc1CNc1ccnc(N2CC(Oc3ccc(F)cc3)C2)n1 | 850 |
| CCCNCc1ccc(-c2ccc(CN(CC3CCCO3)C(=O)COc3ccccc3Cl)cc2)nc1 (stereo not drawn) | 1180 |
| CCN1CCN(c2cc(C)c3cc(NC(=O)c4ccc([N+](=O)[O-])c(C)c4)ccc3n2)CC1 | 654 |
| O=C(/C=C/C=C/c1ccccc1)NCCCCCN1CCC(c2c[nH]c3ccccc23)CC1 | 1170 |
| O=C(NC1CCCCN(Cc2ccccc2O)C1)c1ccc(-c2ccccc2)cc1 (stereo not drawn) | 759 |
| CCNC(=O)Nc1ccc(N(C)c2ccnc(Nc3ccc(CS(C)(=O)=O)cc3)n2)cc1 | 88.8 |
| Cc1occc1C(=O)Nc1nc(-c2ccccn2)nc2ccsc12 | 899 |
| O=C(Cc1ccsc1)NCC(c1ccccc1Cl)c1c[nH]c2ccccc12 (stereo not drawn) | 950 |
| O=C(Cc1c[nH]cn1)Nc1cccc(-c2ccc(-c3nc4cc(F)ccc4[nH]3)s2)c1 | 660 |
| CCN(CC)CC(O)c1cc(-c2ccc(C)cc2)nc2c(C)cc(C)cc12 (stereo not drawn) | 171 |
| CCOc1ccc(C(C)NC(=O)Cc2ccccc2F)cc1OCC (stereo not drawn) | 844 |
| CCC(C)CNC(=O)CN1CN(c2ccccc2)C2(CCN(C(=O)c3ccc(Br)cc3)CC2)C1=O (stereo not drawn) | 1070 |
| Clc1cc(Br)ccc1-c1ccc(CNCC2CCNCC2)o1 | 1510 |
| O=C(/C=C/c1ccc(C(F)(F)F)cc1)NCCCCCN1CCCN(C(=O)Nc2cccc(Cl)c2)CC1 | 992 |
| COc1c(C2CCN(CCCCNC(=O)c3ccc(-c4ccc(NC(=O)C(F)(F)F)cc4)cc3)CC2)ccc2c1CCCC2 | 1000 |
| CCCNC[C@@H](O)[C@H](Cc1ccccc1)NC(=O)c1cc(NCC)cc(N2CCCCS2(=O)=O)c1 | 224 |
| COc1ccc(CNC(=O)NC2CCN(c3ccnc(Nc4ccc(OC)cc4)n3)C2)cc1 (stereo not drawn) | 1000 |
| COc1cc(C(=O)Nc2ccc3nc(N4CCN(C)CC4)cc(C)c3c2)cc(OC)c1OC | 289 |

| SMILES | XC50 [nM] |
| --- | --- |
| CCN(CCCN1CCCCC1)c1cc(C)nc(Nc2ccc(C)c(F)c2)n1 | 273 |
| COc1ccccc1C1CCN(Cc2csc(NC(=O)c3ccc(-c4ccc(C(F)(F)F)cc4)cc3)n2)CC1 | 954 |
| CC(C)c1ccc(CN2CCC(CNC(=O)c3cc(-c4ccccc4F)cs3)C2)cc1 (stereo not drawn) | 993 |
| O=C(Nc1cn(-c2ccc(OCc3cccc(F)c3)c(Cl)c2)c2ncncc12)c1ccncc1 | 171 |
| Cc1cccc(C(=O)Nc2ccc(N3CCCN(Cc4cccc(O)c4)CC3)cc2)c1 | 1420 |
| CC(C)(C)c1nn(-c2ccc(Cl)cc2)c2[nH]c(=O)c(CNCc3ccc4c(c3)OCO4)cc12 | 810 |
| COc1ccc(S(=O)(=O)NC2CCN(c3cc(C)nc(Nc4cccc(C#N)c4)n3)CC2)cc1 | 946 |
| CCOC(=O)c1c(CN2CCCC2)n(-c2ccccc2)c2cc(Br)c(O)cc12 | 1010 |
| CCc1c[nH]c2c(N(c3ccccc3)S(C)(=O)=O)cc(C(=O)N[C@@H](Cc3ccccc3)[C@H](O)CNC(C)(C)CCCC(C)C)cc12 | 823 |
| Cc1noc(C)c1-c1ccc2c(Nc3ccc([N+](=O)[O-])cc3)c(C(N)=O)cnc2c1 | 692 |
| CN1CCCN(Cc2ccc(-c3ccc(NS(=O)(=O)c4cccc5cccnc45)cc3)cc2)CC1 | 694 |
| Cc1cc(-c2ccc(O)c(CNC3CCCCC3)c2)cnc1N | 203 |
| O=C(c1ccc(Cl)cc1)C1CCCN(C2CCN(CCc3ccccc3)CC2)C1 (stereo not drawn) | 1450 |
| COc1ccccc1Cn1ccnc1SCC(=O)Nc1cc(C(F)(F)F)ccc1Cl | 99.9 |
| Cc1cc(F)ccc1-c1nc(Nc2ccncc2)c2ccn(C)c2n1 | 940 |
| COc1ccc(CC(=O)Nc2ccc(-c3cccc(-c4nc5cccc(C)c5[nH]4)c3)cc2)cc1O | 452 |
| O=c1cc(NCCCNC(CNCCc2ccccc2)c2cc(Br)cc(Br)c2)[nH]c2ccccc12 (stereo not drawn) | 864 |
| COc1ccc(CC(=O)Nc2ccc(Nc3nc(C)cc(N(C)C)n3)cc2)cc1 | 790 |
| COc1cccc(CNc2noc(-c3c(-c4ccccc4)noc3C)n2)c1OC | 875 |
| N#Cc1cccc(C(O)C2CN(CCC3CCCCC3)CCC2(O)c2ccccc2)c1 (stereo not drawn) | 129 |
| O=C(Nc1cccc(CN2CCN(C(=O)c3ccccc3)CC2)c1)c1cccs1 | 308 |
| CC1(C)CCC(C)(C)c2c1ccc(C1CCN(CCCCNC(=O)c3ccc(-c4ccc(Cl)cc4)cc3)CC1)c2O | 477 |
| CC(=O)c1ccc(NC(=O)Nc2ccc3nccc(N4CCN(C)CC4)c3c2)cc1 | 432 |
| CCOc1cc(C(=O)NC2CCN(Cc3ccccc3)CC2)ccc1-c1nc2cc(Cl)c(F)cc2[nH]1 | 802 |
| O=C(Nc1ccccc1)N(Cc1ccc(-c2ccc(CNCc3ccc4c(c3)OCO4)cc2)cc1)C1CCN(Cc2ccccc2)CC1 | 570 |

| SMILES | XC50 [nM] |
| --- | --- |
| N#Cc1cc([N+](=O)[O-])ccc1-n1nc(-c2cccc(Cl)c2)n(CC2CCCO2)c1=S (stereo not drawn) | 914 |
| Cc1cc(C2CCCCN2C)ccc1-c1ccc(C(=O)N2CCc3cc4c(cc32)C2(CCN(C)CC2)CO4)cc1 (stereo not drawn) | 791 |
| OC(CNCc1ccccc1OCc1ccccc1)c1cccc(C(F)(F)F)c1 (stereo not drawn) | 364 |
| O=C(/C=C/c1ccc(Cl)c(Cl)c1)NCCCCCN1CCC(NC(=O)Nc2ccc(Cl)c(C(F)(F)F)c2)CC1 | 650 |
| COc1cccc(-c2ccc(C(=O)NC3CCN(Cc4ccc(N(C)C)cc4)CC3)s2)c1 | 1390 |
| O=C(Nc1cccc(-c2ccc(-c3nc4ccccc4[nH]3)cc2)c1)c1cnn2cccnc12 | 1060 |
| CCn1c(-c2nonc2N)nc2c(-c3cccc(NC(=O)Nc4ccccc4OC)c3)ncc(OCCCN)c21 | 1000 |
| Cc1cc(=NN=Cc2cccc(F)c2)c2ccc(F)cc2[nH]1 | 229 |
| N=C(N)NN=Cc1c2ccc(Cl)cc2c(Cl)c2ccc(Cl)cc12 | 958 |
| Cc1cc2nc(-c3ccc(/C=C/C(=O)NCc4ccc(Cl)c(Cl)c4)cc3)[nH]c2cc1C | 824 |
| O=C(Nc1cccc(-c2csc(-c3nc4ccccc4[nH]3)c2)c1)c1cccnc1 | 230 |
| O=C(CCc1c[nH]cn1)Nc1ccc(-c2cccc(-c3nc4ccccc4[nH]3)c2)cc1 | 348 |
| CC(C)CCCC(C)(C)NC[C@@H](O)[C@H](Cc1ccccc1)NC(=O)c1cc(NC(C)C)cc(N2CCCCS2(=O)=O)c1 | 206 |
| O=C(NCCCCN1CCC(c2ccc(OC(F)(F)F)cc2)CC1)c1ccc(NC(=O)c2ccc(Cl)cc2)cc1 | 629 |
| O=C(/C=C/c1ccc(Cl)c(Cl)c1)NCc1ccc(CN2CCC(c3c[nH]c4ccccc34)CC2)cc1 | 711 |
| CN(C)Cc1cccc(-c2ccc(NC(=O)c3ccc4c(=O)n(CCN5CCCCC5)cnc4c3)cc2)c1 | 650 |
| COc1ccc(Nc2ncc(Cl)c(Nc3cccnc3C(N)=O)n2)cc1N1CCN(C)CC1 | 225 |
| CC(=O)Nc1ccc(C(=O)Nc2cccc(-c3ccc(-c4nc5ccccc5[nH]4)s3)c2)cn1 | 180 |
| CCN(CC)Cc1cc(Nc2ccnc3cc(Cl)ccc23)ccc1O | 160 |
| Cn1cncc1C(=O)Nc1ccc(-c2cccc(-c3nc4cc(C(F)(F)F)ccc4[nH]3)c2)cc1 | 858 |
| COc1cc(C)nc2ccc(NC(=O)Nc3cccc4ccccc34)cc12 | 878 |
| CN(C)CCCNCCS(=O)(=O)c1cccc(Nc2ccc(-c3cccc(N(C)C)c3)cn2)c1 | 859 |
| CC(C)CNC(=O)c1ccnc(-c2ccc(CNCCCc3ccccc3)cc2)c1 | 728 |
| COc1cc(C(F)(F)F)c2cc(CNCCCNc3nc4ccccc4[nH]3)[nH]c2c1 | 305 |
| CCCCCCN1CCCN(Cc2ccc(C(=O)Nc3ccc(CCC)cc3)cc2)CC1 | 661 |

| SMILES | XC50 [nM] |
| --- | --- |
| O=C(Nc1ccccc1-c1ccccc1)C1CCCN1C(=O)Nc1ccc(Cl)cc1 (stereo not drawn) | 793 |
| O=C(Nc1cccc(C(F)(F)F)c1)c1cccc(S(=O)(=O)NCC2CCN(CC3CCCCC3)CC2)c1 | 1470 |
| CN(c1cc(NC(=O)c2cccs2)ccn1)C1CCN(Cc2cccc(F)c2)CC1 | 676 |
| COc1nc2c(N3CCN(CCNCc4ccc5c(n4)NC(=O)CO5)CC3)ccnc2cc1F | 758 |
| c1ccc(C2CCN(Cc3ccc(-c4c[nH]c5nc(NC6CCCC6)ncc45)cc3)CC2)cc1 | 1010 |
| CCOC(=O)c1ccc(NC(=O)Nc2ccc(-c3cccc(-c4nc5ccccc5[nH]4)c3)cc2)cc1 | 145 |
| Cc1[nH]c(C)c(-c2ccc(Oc3ccc(C(F)(F)F)cc3)cc2)c(=O)c1Br | 206 |
| COc1cc(NC(=O)N2CCc3cc(OC)c(OCCN4CCCCC4)cc32)cc(C(F)(F)F)c1 | 1150 |
| CS(=O)(=O)CCNCc1nc(-c2ccc3c(=O)[nH]cnc3c2)cs1 | 1010 |
| O=C(Nc1cccc(Cl)c1Cl)N1CCc2cc3nccc(N4CCN5CCC[C@H]5C4)c3cc21 | 1040 |
| c1ccc2c(NCCCCCCNc3ccnc4ccccc34)ccnc2c1 | 191 |
| O=C(O)C1CC(=O)N(c2ccc(Cl)cc2)C1 (stereo not drawn) | 219 |
| CCOc1cc(O)c(-c2nc(N)ncc2-c2ccc3c(c2)OCCO3)cc1CC | 729 |
| CN1CCC(Oc2ccc(CN3CC[C@H](NC(=O)c4cccc(C#N)c4)C3)c3ccccc23)C1 (stereo partly drawn) | 804 |
| c1ccc2[nH]c(-c3ccc(-c4ccc(CN5CCN(c6ccncc6)CC5)cc4)cc3)nc2c1 | 164 |
| Cc1cc(C2CCN(CCCCNC(=O)c3ccc(NC(=O)c4ccc(Cl)cc4)cc3)CC2)c(C)cc1OC(C)C | 744 |
| COc1ccc2nccc([C@@H](O)CN3CCC(NCCNc4cccc(F)c4)CC3)c2c1 | 176 |
| CCn1c(C(C)C)cc2c3c(N)nc(N)nc3ccc21 | 12.4 |
| Cc1ccc(NC(=O)NC2CCN(c3ccnc4cc(Cl)ccc34)C2)cc1 (stereo not drawn) | 149 |
| CCN1CCCC(Nc2ccnc3cc4ccccc4cc23)C1 (stereo not drawn) | 104 |
| COc1cc(Cc2cnc(N)nc2N)cc(OCCCCCC(N)=O)c1OC | 1190 |
| N#Cc1cccc(/C=C/C(=O)NC2CCC(CCN3CCc4ccc(-c5cnccn5)cc4CC3)CC2)c1 (stereo not drawn) | 773 |

Source: ChEMBL document CHEMBL1157539, “Thousands of chemical starting points for antimalarial lead identification” (Nature, 2010)
